Patent US20180325914A1, “INCREASING STORAGE OF VITAMIN A, VITAMIN D AND/OR LIPIDS” (Salk Institute for Biological Studies, priority 2014, published 2018)

Tested on: primary HSCs

Which “Ccnb2 value_2” value (mRNA-Seq, sample Day_6_JQ1) does the source give for `Cc1sc2c(c1C)C(c1ccc(Cl)cc1)=N[C@@H](CC(=O)OC(C)(C)C)c1nnc(C)n1-2` [JQ1, (S)-tert-butyl 2-(4-(4-chlorophenyl)-2,3,9-trimethyl-6H-thieno[3,2-f][1,2,4]triazolo[4,3-a][1,4]diazepin-6-yl)acetate] here?
Its value is 22.7753.

What about the “Ccnf value_2” value (mRNA-Seq, sample Day_6_JQ1) of the same compound?
The value was 11.7934.

And the “Cdc45 value_2” value (mRNA-Seq, sample Day_6_JQ1)?
The value was 7.419.

What about the “Cdca3 value_2” value (mRNA-Seq, sample Day_6_JQ1) of the same compound?
Its value is 31.4087.

And the “Cdk1 value_2” value (mRNA-Seq, sample Day_6_JQ1)?
Its value is 28.779.

And the “Cdkn2c value_2” value (mRNA-Seq, sample Day_6_JQ1)?
The value was 16.1063.

What about the “Cend1 value_2” value (mRNA-Seq, sample Day_6_JQ1) of the same compound?
The value was 7.615.

And the “Cenpe value_2” value (mRNA-Seq, sample Day_6_JQ1)?
The value was 9.129.

What about the “Cenph value_2” value (mRNA-Seq, sample Day_6_JQ1) of the same compound?
Its value is 8.899.

And the “Chaf1a value_2” value (mRNA-Seq, sample Day_6_JQ1)?
The value was 16.8473.

And the “Ckap2l value_2” value (mRNA-Seq, sample Day_6_JQ1)?
The value was 18.5683.

What about the “Ckb value_2” value (mRNA-Seq, sample Day_6_JQ1) of the same compound?
The value was 310.111.

And the “Cks1b value_2” value (mRNA-Seq, sample Day_6_JQ1)?
Its value is 113.98.

What about the “Colec11 value_2” value (mRNA-Seq, sample Day_6_JQ1) of the same compound?
The value was 68.8593.

And the “Cpt1c value_2” value (mRNA-Seq, sample Day_6_JQ1)?
The value was 30.5415.

And the “Ctnnbip1 value_2” value (mRNA-Seq, sample Day_6_JQ1)?
Its value is 14.2922.

And the “Cyb5r3 value_2” value (mRNA-Seq, sample Day_6_JQ1)?
Its value is 256.005.

What about the “Cyp1b1 value_2” value (mRNA-Seq, sample Day_6_JQ1) of the same compound?
The value was 100.635.

What about the “D2Ertd750e value_2” value (mRNA-Seq, sample Day_6_JQ1) of the same compound?
The value was 10.3027.

And the “Dact3 value_2” value (mRNA-Seq, sample Day_6_JQ1)?
The value was 26.3749.

And the “Dag1 value_2” value (mRNA-Seq, sample Day_6_JQ1)?
The value was 162.916.

What about the “Dcbld2 value_2” value (mRNA-Seq, sample Day_6_JQ1) of the same compound?
Its value is 73.5335.

What about the “Dcxr value_2” value (mRNA-Seq, sample Day_6_JQ1) of the same compound?
Its value is 36.0469.

What about the “Ddr2 value_2” value (mRNA-Seq, sample Day_6_JQ1) of the same compound?
Its value is 63.2059.

And the “Diap3 value_2” value (mRNA-Seq, sample Day_6_JQ1)?
Its value is 10.7413.

And the “Dlgap5 value_2” value (mRNA-Seq, sample Day_6_JQ1)?
Its value is 10.9428.

And the “Dzip3 value_2” value (mRNA-Seq, sample Day_6_JQ1)?
Its value is 8.399.

What about the “E2f1 value_2” value (mRNA-Seq, sample Day_6_JQ1) of the same compound?
Its value is 21.0746.

And the “Elovl5 value_2” value (mRNA-Seq, sample Day_6_JQ1)?
The value was 65.5058.

What about the “Eno2 value_2” value (mRNA-Seq, sample Day_6_JQ1) of the same compound?
Its value is 9.68.

What about the “Ephb3 value_2” value (mRNA-Seq, sample Day_6_JQ1) of the same compound?
Its value is 16.6667.

And the “Ephx1 value_2” value (mRNA-Seq, sample Day_6_JQ1)?
The value was 132.832.

What about the “Evc value_2” value (mRNA-Seq, sample Day_6_JQ1) of the same compound?
Its value is 10.4125.

What about the “Ext2 value_2” value (mRNA-Seq, sample Day_6_JQ1) of the same compound?
The value was 87.8458.

And the “Fam171b value_2” value (mRNA-Seq, sample Day_6_JQ1)?
The value was 12.8947.

What about the “Fbxo5 value_2” value (mRNA-Seq, sample Day_6_JQ1) of the same compound?
Its value is 11.9069.

And the “Fignl1 value_2” value (mRNA-Seq, sample Day_6_JQ1)?
Its value is 12.5326.

What about the “Foxm1 value_2” value (mRNA-Seq, sample Day_6_JQ1) of the same compound?
The value was 15.7609.

And the “Fscn1 value_2” value (mRNA-Seq, sample Day_6_JQ1)?
The value was 385.037.

And the “Gas1 value_2” value (mRNA-Seq, sample Day_6_JQ1)?
The value was 80.3077.

And the “Gmnn value_2” value (mRNA-Seq, sample Day_6_JQ1)?
The value was 19.8433.

And the “Gpm6b value_2” value (mRNA-Seq, sample Day_6_JQ1)?
Its value is 19.7607.

What about the “Gpx1 value_2” value (mRNA-Seq, sample Day_6_JQ1) of the same compound?
Its value is 332.885.

What about the “Gstt3 value_2” value (mRNA-Seq, sample Day_6_JQ1) of the same compound?
The value was 14.4369.

And the “Gyg value_2” value (mRNA-Seq, sample Day_6_JQ1)?
Its value is 82.2854.

And the “Hadh value_2” value (mRNA-Seq, sample Day_6_JQ1)?
Its value is 56.1898.

And the “Hand2 value_2” value (mRNA-Seq, sample Day_6_JQ1)?
Its value is 110.598.

What about the “Hmmr value_2” value (mRNA-Seq, sample Day_6_JQ1) of the same compound?
Its value is 17.0843.

And the “Id3 value_2” value (mRNA-Seq, sample Day_6_JQ1)?
The value was 1063.75.

What about the “Ildr2 value_2” value (mRNA-Seq, sample Day_6_JQ1) of the same compound?
The value was 11.4416.

What about the “Kif2c value_2” value (mRNA-Seq, sample Day_6_JQ1) of the same compound?
Its value is 11.8118.

And the “Kif4 value_2” value (mRNA-Seq, sample Day_6_JQ1)?
Its value is 7.332.

What about the “Kif11 value_2” value (mRNA-Seq, sample Day_6_JQ1) of the same compound?
The value was 10.8132.

And the “Kif20b value_2” value (mRNA-Seq, sample Day_6_JQ1)?
Its value is 7.299.

What about the “Kif22 value_2” value (mRNA-Seq, sample Day_6_JQ1) of the same compound?
Its value is 14.9542.

What about the “Lamb2 value_2” value (mRNA-Seq, sample Day_6_JQ1) of the same compound?
The value was 41.1365.

And the “Lhfp value_2” value (mRNA-Seq, sample Day_6_JQ1)?
Its value is 371.966.

And the “Lphn1 value_2” value (mRNA-Seq, sample Day_6_JQ1)?
The value was 20.1469.

And the “Melk value_2” value (mRNA-Seq, sample Day_6_JQ1)?
The value was 7.467.

What about the “Mfge8 value_2” value (mRNA-Seq, sample Day_6_JQ1) of the same compound?
The value was 379.144.

And the “Mki67 value_2” value (mRNA-Seq, sample Day_6_JQ1)?
Its value is 27.8603.

What about the “Mmp11 value_2” value (mRNA-Seq, sample Day_6_JQ1) of the same compound?
The value was 36.1215.

And the “Mras value_2” value (mRNA-Seq, sample Day_6_JQ1)?
The value was 15.4481.

What about the “Mrc2 value_2” value (mRNA-Seq, sample Day_6_JQ1) of the same compound?
The value was 111.626.

And the “Msx1 value_2” value (mRNA-Seq, sample Day_6_JQ1)?
Its value is 5.962.

What about the “Ndc80 value_2” value (mRNA-Seq, sample Day_6_JQ1) of the same compound?
Its value is 8.604.

And the “Nkd1 value_2” value (mRNA-Seq, sample Day_6_JQ1)?
The value was 16.9471.

And the “Nuf2 value_2” value (mRNA-Seq, sample Day_6_JQ1)?
The value was 9.227.

And the “Oat value_2” value (mRNA-Seq, sample Day_6_JQ1)?
The value was 213.454.

And the “Osbpl5 value_2” value (mRNA-Seq, sample Day_6_JQ1)?
Its value is 41.3593.

What about the “Osr1 value_2” value (mRNA-Seq, sample Day_6_JQ1) of the same compound?
Its value is 16.6329.

And the “Pbx1 value_2” value (mRNA-Seq, sample Day_6_JQ1)?
Its value is 48.4716.

What about the “Pld3 value_2” value (mRNA-Seq, sample Day_6_JQ1) of the same compound?
Its value is 190.597.

And the “Plxdc2 value_2” value (mRNA-Seq, sample Day_6_JQ1)?
The value was 26.1768.

What about the “Prc1 value_2” value (mRNA-Seq, sample Day_6_JQ1) of the same compound?
Its value is 30.6759.

What about the “Ptgr1 value_2” value (mRNA-Seq, sample Day_6_JQ1) of the same compound?
The value was 25.0296.

What about the “Pxmp4 value_2” value (mRNA-Seq, sample Day_6_JQ1) of the same compound?
Its value is 17.7124.

And the “Pygb value_2” value (mRNA-Seq, sample Day_6_JQ1)?
The value was 42.1403.

What about the “Racgap1 value_2” value (mRNA-Seq, sample Day_6_JQ1) of the same compound?
Its value is 22.85.

What about the “Rarb value_2” value (mRNA-Seq, sample Day_6_JQ1) of the same compound?
The value was 70.6683.

And the “S100a6 value_2” value (mRNA-Seq, sample Day_6_JQ1)?
The value was 1608.42.

And the “Scrn1 value_2” value (mRNA-Seq, sample Day_6_JQ1)?
Its value is 7.911.

And the “Sipa1l1 value_2” value (mRNA-Seq, sample Day_6_JQ1)?
The value was 28.6555.

What about the “Slit2 value_2” value (mRNA-Seq, sample Day_6_JQ1) of the same compound?
The value was 14.8622.

What about the “Smc2 value_2” value (mRNA-Seq, sample Day_6_JQ1) of the same compound?
Its value is 19.557.

What about the “Smc4 value_2” value (mRNA-Seq, sample Day_6_JQ1) of the same compound?
The value was 33.8803.

And the “Snap47 value_2” value (mRNA-Seq, sample Day_6_JQ1)?
The value was 103.523.

And the “Spc24 value_2” value (mRNA-Seq, sample Day_6_JQ1)?
Its value is 8.494.

What about the “Spry1 value_2” value (mRNA-Seq, sample Day_6_JQ1) of the same compound?
The value was 44.5222.

What about the “St5 value_2” value (mRNA-Seq, sample Day_6_JQ1) of the same compound?
Its value is 35.2195.

What about the “Tacc3 value_2” value (mRNA-Seq, sample Day_6_JQ1) of the same compound?
The value was 18.1794.

And the “Tfdp2 value_2” value (mRNA-Seq, sample Day_6_JQ1)?
Its value is 10.5854.

And the “Tinagl1 value_2” value (mRNA-Seq, sample Day_6_JQ1)?
Its value is 326.013.

What about the “Tmem53 value_2” value (mRNA-Seq, sample Day_6_JQ1) of the same compound?
Its value is 17.4035.

What about the “Tmsb10 value_2” value (mRNA-Seq, sample Day_6_JQ1) of the same compound?
The value was 1117.74.

And the “Trim59 value_2” value (mRNA-Seq, sample Day_6_JQ1)?
Its value is 27.2401.

What about the “Tro value_2” value (mRNA-Seq, sample Day_6_JQ1) of the same compound?
Its value is 7.307.

And the “Trp53inp2 value_2” value (mRNA-Seq, sample Day_6_JQ1)?
Its value is 99.8045.

And the “Twist1 value_2” value (mRNA-Seq, sample Day_6_JQ1)?
Its value is 19.9784.

And the “Uhrf1 value_2” value (mRNA-Seq, sample Day_6_JQ1)?
The value was 16.7743.

What about the “Vgll3 value_2” value (mRNA-Seq, sample Day_6_JQ1) of the same compound?
The value was 95.3643.

And the “Wdr35 value_2” value (mRNA-Seq, sample Day_6_JQ1)?
Its value is 9.874.

And the “Wt1 value_2” value (mRNA-Seq, sample Day_6_JQ1)?
Its value is 29.0084.

What about the “Zbtb7c value_2” value (mRNA-Seq, sample Day_6_JQ1) of the same compound?
Its value is 7.895.

And the “number of genes upregulated during HSC activation (more than 900) that are suppressed” value (primary HSCs, days 3 and 6 vs day 1, JQ1 500 nM)?
Its value is “more than 400 genes”.

And the “induction of key marker genes Col1a1, Acta2, Col1a2 and Des during HSC activation” value (primary HSCs, JQ1 500 nM, mRNA-Seq and qRT-PCR)?
The value was “drastically abolished”.
